Assay results: patent US12171821B2, “Toxoplasma gondii vaccine” (priority 2018, dated 2024)
Where “and” joins values, the source holds several entries; their conditions need not be identical. Equal entries are not always repeated. Entries after “also recorded” stand apart in the source; their conditions may differ.

Key:
[1] = test system: T. gondii ME49 bradyzoites; test: Gametes and intracellular oocyst walls (AO2, 3G4, PCR) in infected cat intestinal monolayers; type: cell-based, Toxoplasma gondii
Method: FIGS. 7A-H. Identification of gametes and intracellular oocysts in cat tissue culture. Cat intestinal organoids were disassociated by trypsin then grown as monolayers on glass slides. […] After 7 days, monolayers were incubated with mouse anti-AO2 (panels A-C) or mouse monoclonal IgM 3G4 (panels E-G), The amiloride-sensitive amine oxidase, copper-containing protein 2 (AO2) is an enzyme exclusively expressed in macrogametes and early oocysts and has a possible role in oocyst wall biogenesis. […] 3G4 is a mouse monoclonal antibody produced by immunizing mice with purified oocyst walls, thus it is a marker of oocyst wall biogenesis. Only monolayers supplemented with linoleic acid (G) had positive 3G4 vacuoles. All panels are 20 μm square with a 5 μm white size bar in the lower right corner. D) Markers for macrogamete and microgamete expression were also evaluated by PCR. Cat intestinal monolayers were grown in 24-well plates until confluency and then infected with T. gondii bradyzoites in duplicate using the same conditions as above. 7 days post-infection, RNA was extracted with TRIzol and cDNA was synthesized using an oligo (dT) primer to only amplify mRNA. AO2 was again used as a marker for macrogametes and the expected PCR product is 218 bp. To assess microgamete presence, we selected the gene TgME49_306338, which is overexpressed in the gametes stage, corresponded to day 7 post-infection in cats and has 44% identity to a protein expressed in the flagella of the motile green algae Chlamydomonas reinhardtii. The expected PCR product for TgME49_306338 is 160 bp. TUB1A was used as an input control and results in a 172 bp product. NO RT corresponds to a cDNA synthesis reaction without the addition of reverse transcriptase (RI) as a control for genomic DNA contamination. Equivalent amounts of cDNA per sample were used as a template for each PCR reaction, and the products were separated on an acrylamide gel. […] H) The number of positive oocyst walls stained with 3G4 were quantified. […] The number of positive oocyst walls were counted in each slide and divided by the area of slide in cm^2.
Immunofluorescence. Intestinal organoid monolayers or mouse fecal samples were fixed in 3.7% formaldehyde in PBS for 20 minutes, permeabilized with 0.2% triton X-100 (Sigma) in PBS at room temperature for one hour and then blocked with 3% BSA in PBS at room temperature for one hour. Primary antibody was incubated at 4° C. overnight in 0.2% v/v Triton x-100 and 3% BSA in PBS (1:100 mouse anti-GRA11B, 1:100 rabbit anti-BRP1, 1:100 mouse anti-AO2, 1:50 monoclonal mouse anti-ZO1 (Santa Cruz) or 1:25 mouse 288 IgM anti-oocyst wall 3G4. Sporulated oocysts from mouse feces were dried onto slides, fixed and permeabilized with ice cold acetone for 30 minutes and incubated with 1:20 mouse 4B6 to the visualize the sporocyst. Slides were incubated one hour with the specific secondary antibody (1:500 goat anti-rabbit Alexa Fluor 488 and 1:500 goat anti-mouse Alexa Fluor 594) at room temperature for one hour and then washed 3 times with PBS. Cells nuclei were stained with 10 μM DAPI (Sigma). Slides were mounted in Vectashield antifade mounting medium (VectorLabs). Samples were imaged on Zeiss Axioplan III equipped with a triple-pass (DAPI/fluorescein isothiocyanate [FITC]/Texas Red) emission cube, differential interference contrast optics, and a monochromatic Axiocam camera operated by Zen software (Zeiss) and processed using ImageJ (Fiji packet).
PCR of cat intestinal monolayers. […]

[2] = test system: T. gondii ME49 bradyzoites; test: Real-time PCR on ileum cDNA of infected Z-DNA binding protein knock out mice; type: in vivo, Toxoplasma gondii; details: homogenized mouse ileum cDNA
Method: Delta-6-desaturase inhibition. SC 26196 (Cayman) was solubilized in DMSO and used at 20 μM in mouse organoid monolayers. For in vivo treatment, the inhibitor was solubilized in 0.5% m/v methylcellulose and the mice were given 50 mg/kg every 12 hours by oral gavage (He et al., 2012). 4-week old C57BL/6J female mice deleted in Z-DNA-binding protein (Pittman et al., 2016) were divided into four different groups: uninfected control, T. gondii-infected without fatty acid supplementation, T. gondii infected with linoleic acid supplementation, and T. gondii-infected with linoleic acid and SC 26196 inhibitor. Each mouse supplemented with linoleic acid received 10 μL of 99% linoleic acid oil (MilliporaSigma Cat #843483) suspended in 0.5% Methylcellulose per day by oral gavage. Mice were infected with 1000 brain cysts purified as described above by oral gavage and euthanized 7 days post infection. Sample size was at least 2 mice per group and the experiment was repeated 5 times. Alternatively, each mouse was infected with one mouse brain at least 2 months postinfection with at least 1000 cysts. Mice were treated with SC 26196 until day 5 postinfection. Feces were collected from days 5-14 and oocysts enumerated by microscopy.
Real-time PCR on ileum cDNA. Z-DNA binding protein deletion mice ice with and without delta-6-desaturase inhibitor treatment were euthanized 7 days post infection. The ileum of each mouse was removed and homogenized in 1 mL of TRIzol. Total RNA was isolated according to manufacturer's protocol (Invitrogen) and treated with amplification grade Dnase I. cDNA was generated using the Invitrogen SuperScript III First-Strand Synthesis kit with random hexamer primers. GRA11B and SAG1 were used as markers of sexual and asexual stages, respectively. The T. gondii housekeeping gene TUB1A was used to normalize target gene expression. Real-time quantitative PCR was performed using Bio-Rad iTaq Universal SYBR Green Supermix on 311 an Applied Biosystems StepOnePlus Real-Time PCR system. The efficiency of each primer set was calculated from the slope of a 1:10 dilution standard curve of tachyzoite gDNA, where E=10^(−1/slope). The Pfaffl method (Pfaffl, 2001), which accounts for differences in efficiencies, was then used to calculate the relative gene expression of GRA11B and SAG1 per sample, in triplicate. Only wells with one melt curve temperature were used, indicating a single product. Primer sequences were as follows:
Statistical methods. All real-time PCR fecal samples were run in triplicate technical replicates. The difference between the mean target gene copy numbers was analyzed by two-tailed unpaired t tests. The real-time PCR intestinal samples were run in triplicate from two biological replicates per group. The difference between the mean relative expression of each target gene was analyzed by two-tailed unpaired t tests.

asexual tachyzoite stage = details: prior work (Shamseddin et al., 2015); cited from earlier work
[3] = 7 days post infection, Mouse 1 and Mouse 2, wells 1-3

## CCCCC/C=C\C/C=C\CCCCCCCC(=O)O [linoleic acid]
[1]; cat cells, 20 μM linoleic acid
  oocyst wall production: did not enhance oocyst wall production
[1]; cat intestinal monolayers, 200 μM fatty acid, 7 days of infection
  macrogamete protein AO2 by immunofluorescence: round structures were seen with reactivity to the macrogamete protein AO210; also recorded: only detected by immunofluorescence in the monolayers supplemented with linoleic acid
[1]; cat intestinal monolayers, 200 μM, 7 days post-infection
  AO2 and TgME49_306338 expression by PCR (bands with the correct size): only observed in linoleic acid supplemented monolayers
[1]; cultured cat cells, 200 μM fatty acid, 7 days of infection
  number of positive oocyst walls stained with 3G4: approximately 9 oocyst walls per cm^2
[2]; [3]
  GRA11B raw Ct values: 33.43 and 36.02 and 35.59 and 38.24 and 39.05
  SAG1 raw Ct values: 32.63 and 31.52 and 32.31 and 31.46 and 32.97 and 31.72
[2]; Mouse 1 and Mouse 2
  GRA11B Ct mean: 37.13 and 36.02
  SAG1 Ct mean: 32.63 and 31.57
Asexual tachyzoite stage
  cytotoxicity for the asexual tachyzoite stage: cytotoxic
